Ka and binding data for two molecules are collected here from publication PMC9303235 (2022).

Molecules are shown by their SMILES.

Assay [1] relates to QD3-sbl (DNA, G4) TTAGGTGGGTAGGGTGGGCTAGTCATTTTGACTAGG
Nature of the assay: ITC. To be noted: 120 mM K+; 20 mM potassium phosphate, 100 mM KCl, pH 7.0, 5% DMSO, 40 °C; high-affinity site, two-site fit.

Assay [2] deals with QD2-l (DNA, G4) GGTTGGCGCGAAGCATTCGCGGGTTGG
Nature of the assay: NMR titration (imino protons, ROESY exchange). To be noted: K+ (10 mM potassium phosphate), pH 7.0, 20 °C, 0.5 mM DNA, slow exchange, intercalation at junction.

Assay [3] has as its system QD3-sbl (DNA, G4) TTAGGTGGGTAGGGTGGGCTAGTCATTTTGACTAGG
Nature of the assay: NMR solution structure. Particulars: K+ (10 mM potassium phosphate); pH 7.0, 30 °C; about 2% DMSO-d6; intercalation at quadruplex-duplex junction.

For `C[n+]1c2ccccc2cc2[nH]c3ccccc3c21`, the Ka entry in assay [1] was “(3.3±0.7) ⋅ 10^6 M^-1”.
As for `CN(C)CCCNc1c2ccccc2nc2c1[nH]c1ccccc12`, the Ka result in assay [1] was “(1.1±0.3) ⋅ 10^7 M^-1”. Further, the binding entry in assay [2] and in assay [3] was “yes” throughout.
